In paper PMC6297231 (Nature Communications, 2018):
pEC50: −log10 of the molar value. Read-outs that look alike come from different tables or passages of the source.

Experiments:
MV4-11 tumors = assay: MV4-11 subcutaneous mouse xenograft efficacy; format: in vivo, mice; details: for tumor regression (TR): transient
Experimental: Female C.B.-17 SCID mice and female nude rats were purchased from Charles River Laboratories. […]. All xenograft studies were conducted at our Association for the Assessment and Accreditation of Laboratory Animal Care accredited facility in Waltham, MA in accordance with ethical regulations described in the guidelines established by the internal Institutional Animal Care and Use Committee. […]. In mice, drugs were dosed intravenously in a volume of 5 mL kg^-1 except for venetoclax that was dosed orally in a volume of 10 mL kg^-1. […]. Ten million MV4-11 cells were injected subcutaneously in the right flank of rats in a volume of 0.1 mL. Tumor volumes (measured by caliper), animal body weight, and tumor condition were recorded twice weekly for the duration of the study. The tumor volume was calculated using the formula: length (mm) × width (mm)^2[…]. For efficacy studies, growth inhibition from the start of treatment was assessed by comparison of the differences in tumor volume between control and treated groups. Statistical significance was evaluated using non-parametric, unpaired, two-tailed t-test. For efficacy studies, animals were randomized based on tumor volumes using stratified sampling, and enrolled into control and treatment groups. Dosing began when mean tumor size reached ~230 mm^3 in mice and 900 mm^3 in rats. Mice were euthanized once tumor size reached 2000 mm^3. Mice were excluded from the study upon body weight loss > 10% of the body weight at the initiation of the study. For pharmacokinetic analysis, plasma samples were precipitated and diluted with acetonitrile containing internal standard and analyzed by LC–MS/MS versus a calibration curve of known concentrations.

[1] = tested on: murine Eµ-Myc lymphoma tumors; assay: GFP-labeled Eµ-Myc lymphoma model; format: in vivo, mice; details: 100 mg kg^−1 on day 3 and day 10 post-transplantation
Excerpt: Eµ-Myc: These studies complied with all ethical regulations in accordance with the guidelines established by the Institutional Animal Experimentation Ethics Committee, Peter MacCallum Cancer Center. Non-irradiated C57BL/6 mice between 6 and 8 weeks old were transplanted by tail vein injection with 100,000 GFP-labeled Eμ-Myc lymphoma cells[39] harvested from lymph nodes of a syngeneic mouse. Treatment started 3 days after implantation. AZD5991 and vehicle were formulated and administered as mentioned above. Peripheral blood was collected by retro-orbital sampling 11 days post-transplantation and GFP-expressing leukemic cells assessed by flow cytometry using a BD FACSCanto II cytometer and data analyzed using Flowlogic software. Gating strategy is shown in Supplementary Figure 8.

OPM2 = assay: Cell viability assay; format: cell-based; details: Homo sapiens, OPM-2, 24 h; OPM2 (MM); read-out: AZD5991 24h GI50
Experimental: (§1) Cells were plated at 3000 cells/well in 384-well white plates in corresponding cell growth media. […] Caspase-3/7 activation was subsequently determined using a Caspase-Glo 3/7 Reagent (Promega) and viability was assayed using the CellTiter-Glo Reagent (Promega) as described in manufacturer’s instructions. Dose–response curves for caspase-3/7 activation and viability were plotted and analyzed (including EC50 and GI50 determination) using GraphPad Prism.

MM1R = assay: Cell viability assay; format: cell-based; details: MM.1R, 24 h, read-out: AZD5991 24h GI50
Experimental: as §1

Karpas620 = assay: Cell viability assay; format: cell-based; details: Karpas-620, 24 h; Karpas620 (MM); read-out: AZD5991 24h GI50
Experimental: as §1

THP-1 = assay: Cell viability assay; format: cell-based; details: Homo sapiens, 24 h; THP-1 (AML); read-out: AZD5991 24h GI50
Experimental: as §1

OCIM1 [2] = assay: Cell viability assay; format: cell-based; details: OCI-M1, 24 h; OCIM1 (AML); read-out: AZD5991 24h GI50
Experimental: as §1

Karpas422 = assay: Cell viability assay; format: cell-based; details: Homo sapiens, KARPAS-422, 24 h; Karpas422 (NHL); read-out: AZD5991 24h GI50
Experimental: as §1

Ramos = assay: Cell viability assay; format: cell-based; details: Homo sapiens, 24 h; Ramos (NHL); read-out: AZD5991 24h GI50
Experimental: as §1

RCK8 = assay: Cell viability assay; format: cell-based; details: Homo sapiens, 24 h; RCK8 (NHL); read-out: AZD5991 24h GI50
Experimental: as §1

WSUDLCL2 = assay: Cell viability assay; format: cell-based; details: Homo sapiens, 24 h; WSUDLCL2 (NHL); read-out: AZD5991 24h GI50
Experimental: as §1

H2110 = assay: Cell viability assay; format: cell-based; details: NCI-H2110, 24 h; H2110 (Lung); read-out: AZD5991 24h GI50
Experimental: as §1

MALME3M = assay: Cell viability assay; format: cell-based; details: Homo sapiens, Malme-3M, 24 h; MALME3M (Skin); read-out: AZD5991 24h GI50
Experimental: as §1

SKMEL24 = assay: Cell viability assay; format: cell-based; details: Homo sapiens, SK-MEL-24, 24 h; SKMEL24 (Skin); read-out: AZD5991 24h GI50
Experimental: as §1

647V = assay: Cell viability assay; format: cell-based; details: Homo sapiens, 24 h; 647V (Urology); read-out: AZD5991 24h GI50
Experimental: as §1

SNU1197 = assay: Cell viability assay; format: cell-based; details: 24 h; SNU1197 (GI); read-out: AZD5991 24h GI50
Experimental: as §1

SKOV3 = assay: Cell viability assay; format: cell-based; details: Homo sapiens, SK-OV-3, 24 h; SKOV3 (Others); read-out: AZD5991 24h GI50
Experimental: as §1

KG1 = assay: Caspase-3/7 activation assay; format: cell-based; details: Homo sapiens, KG-1, 6 h
Experimental: as §1

OCIAML5 = assay: Caspase-3/7 activation assay; format: cell-based; details: Homo sapiens, OCI-AML-5, 6 h
Experimental: as §1

OCIM1 [3] = assay: Caspase-3/7 activation assay; format: cell-based; details: OCI-M1, 6 h
Experimental: as §1

H23 = assay: Caspase-3/7 activation assay; format: cell-based; details: Homo sapiens
Experimental: as §1

[4] = tested on: Eμ-Myc lymphoma cells stably expressing human Bcl-2; assay: Apoptosis induction in Eμ-Myc lymphoma cells; details: overexpression of Bcl-2, 24 h
Excerpt: The retroviral plasmids to express human Bcl-2 family members in murine Eμ-Myc lymphoma cells are MSCV-hMCL-1-GFP, MSCV-hBCL-2-GFP, MSCV-hBCL-XL-GFP, MSCV-hBFL-1/A1-GFP, and MSCV-hBCL-w-GFP. To produce viruses, constructs of interest were co-transfected into HEK293T cells with the plasmid encoding the packaging viruses (p-CL-AMPHO provided by Phillip Darcy from Peter MacCallum Cancer Center, Melbourne, Australia) using standard calcium phosphate transient transfection technique. The retroviruses were harvested, filtered and used to infect target cells following standard procedures.
Samples were then centrifuged, washed twice with PBS and analyzed by flow cytometry in a BD LSRFortessa. FACSDiva software was used for data collection and FlowJo software for data analysis.

Cc1c2c(nn1C)CSCc1cc(n(C)n1)CSc1cc(c3ccccc3c1)OCCCc1c(C(=O)O)n(C)c3c-2c(Cl)ccc13 (atropisomer, axis not shown; (Ra)) [(Ra)-7]
tumor regression (TR) (MV4-11 tumors; single i.v. dose 10 mg kg^−1, 7 days after treatment): 66%
tumor regression (TR) (MV4-11 tumors; single i.v. dose 30 mg kg^−1, 7 days after treatment): 93%
mice with complete TR (MV4-11 tumors; single i.v. dose 100 mg kg^−1): six out of six
survival vs. vehicle control group [1]: prolonged survival
leukemic cells in peripheral blood ([1]; day 11): depletion of leukemic cells from peripheral blood
GI50 (OPM2): 57 nM
GI50 (MM1R): 87 nM
GI50 (Karpas620): 87 nM
GI50 (THP-1): 76 nM
GI50 (OCIM1 [2]): 27700 nM
GI50 (Karpas422): 490 nM
GI50 (Ramos): 11 nM
GI50 (RCK8): > 30000 nM
GI50 (WSUDLCL2): 109 nM
GI50 (H2110): 140 nM
GI50 (MALME3M): 19500 nM
GI50 (SKMEL24): 17900 nM
GI50 (647V): 22300 nM
GI50 (SNU1197): 27300 nM
GI50 (SKOV3): 144 nM
pEC50 (KG1; read-out: 6h caspase EC50, KG1, single agent): < 6.48
pEC50 (KG1; read-out: AZD5991 6h EC50, KG1 (AML), caspase 3/7 activation): 6.29
pEC50 (OCIAML5; read-out: 6h caspase EC50, OCIAML5, single agent): < 6.48
pEC50 (OCIAML5; read-out: AZD5991 6h EC50, OCIAML5 (AML), caspase 3/7 activation): < 4.52
pEC50 (OCIM1 [3]; read-out: 6h caspase EC50, OCIM1, single agent): < 6.48
pEC50 (OCIM1 [3]; read-out: AZD5991 6h EC50, OCIM1 (AML), caspase 3/7 activation): < 4.52
pEC50 (H23; NCI-H23, 6 h, read-out: AZD5991 6h EC50, H23 (Lung), caspase 3/7 activation): 6.46
pEC50 (H23; NCI-H23, caspase activation, Mcl-1-dependent cell line, read-out: NCI-H23, EC50): 6.72
EC50 (H23; NCI-H23, mean of log transformed data, read-out: NCI-H23 caspase pEC50 (converted)): 195 nM
apoptosis-inducing activity [4]: blocked
